# Assay results published in ChEMBL document CHEMBL1201862, “PubChem BioAssay data set” (2004).
# Activity calls are given as the source filed them.
# Experiments:
# [1] = tested on: Staphylococcus aureus; experiment: Inhibitors of Bacterial Quorum Sensing Structure Activity Relationship (SAR) Analysis: Dose Response Assay. [Related pubchem assays: 700, 527 ]; type: functional, organism-based
# [2] = Cytotoxicity screening for potential Inhibitors of Bacterial Capsule Biogenesis. [Related pubchem assays (depositor defined):AID488970]; type: functional
# [3] = target: UDP-galactopyranose mutase (Mycobacterium tuberculosis, UniProt P9WIQ1); experiment: Inhibitors of Mycobacterium tuberculosis UDP-galactopyranose mutase (UGM) enzyme Measured in Biochemical System Using Plate Reader - 2105-02_Inhibitor_Dose_CherryPick_Activity. [Related pubchem assays (depositor defined):AID504439]
# [4] = target: T1, Endoribonuclease toxin MazF (Escherichia coli K-12, UniProt P0AE70); experiment: MazF toxin RNase activators, dose response, biochemical, fluorescence, single-stranded RNA substrate, uHTS hits (AID 588481); type: functional
# T1 sequence (P0AE70 whole entry): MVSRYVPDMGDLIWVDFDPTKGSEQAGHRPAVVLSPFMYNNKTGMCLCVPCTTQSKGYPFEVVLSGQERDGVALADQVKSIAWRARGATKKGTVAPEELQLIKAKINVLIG
# [5] = target: T1, Endoribonuclease toxin MazF; experiment: fluorescent RNA oligo signal without MazF, dose response, counter-screen for MazEF activator project, biochemical, fluorescence, single-stranded RNase substrate (AID 588502); type: functional
# [6] = target: T2, Voltage-dependent T-type calcium channel subunit alpha-1H (Homo sapiens, UniProt O95180); experiment: Inhibitors of T-Type Calcium Channels. [Related pubchem assays (depositor defined):AID449739, AID463087, AID489005, AID493041, AID504579, AID504584, AID504619, AID504628]; type: functional
# [7] = target: T2, Voltage-dependent T-type calcium channel subunit alpha-1H; type: functional
# [8] = tested on: HeLa; experiment: HeLa cell cytotoxicity, dose response, cytotoxicity control, 24 h, cherry-picked samples (AID 504726); type: functional, cell-based; settings: Homo sapiens;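 further: potency for cytotoxicity as loss of luminescence signal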
# [9] = target: ORF 73 (Human herpesvirus 8, UniProt O40947); experiment: inhibitors of C-LANA binding to LBS DNA, dose response, biochemical, fluorescence polarization, cherry-picked samples (AID 504725); parameters: species or system Human gammaherpesvirus 8;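 further: fluorescence polarization of a labeled DNA duplex reporting LANA DNA binding; potency is for inhibitors that block LANA binding to the DNA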
# [10] = target: Tumor necrosis factor (Homo sapiens, UniProt P01375); experiment: TNFa-triggered NF-kB activation inhibitors, SAR follow-up, cell-based, revised (AID 2337); type: functional
# [11] = target: T3, Nucleotide-binding oligomerization domain-containing protein 1 (Homo sapiens, UniProt Q9Y239); experiment: SAR analysis of NF-kappaB dependent luciferase using DAP as an inducer - Set 2. [Related pubchem assays (depositor defined):AID1566, AID1575, AID1578, AID1579, AID1849, AID1852, AID2264]; type: functional
# T3 sequence (Q9Y239 whole entry): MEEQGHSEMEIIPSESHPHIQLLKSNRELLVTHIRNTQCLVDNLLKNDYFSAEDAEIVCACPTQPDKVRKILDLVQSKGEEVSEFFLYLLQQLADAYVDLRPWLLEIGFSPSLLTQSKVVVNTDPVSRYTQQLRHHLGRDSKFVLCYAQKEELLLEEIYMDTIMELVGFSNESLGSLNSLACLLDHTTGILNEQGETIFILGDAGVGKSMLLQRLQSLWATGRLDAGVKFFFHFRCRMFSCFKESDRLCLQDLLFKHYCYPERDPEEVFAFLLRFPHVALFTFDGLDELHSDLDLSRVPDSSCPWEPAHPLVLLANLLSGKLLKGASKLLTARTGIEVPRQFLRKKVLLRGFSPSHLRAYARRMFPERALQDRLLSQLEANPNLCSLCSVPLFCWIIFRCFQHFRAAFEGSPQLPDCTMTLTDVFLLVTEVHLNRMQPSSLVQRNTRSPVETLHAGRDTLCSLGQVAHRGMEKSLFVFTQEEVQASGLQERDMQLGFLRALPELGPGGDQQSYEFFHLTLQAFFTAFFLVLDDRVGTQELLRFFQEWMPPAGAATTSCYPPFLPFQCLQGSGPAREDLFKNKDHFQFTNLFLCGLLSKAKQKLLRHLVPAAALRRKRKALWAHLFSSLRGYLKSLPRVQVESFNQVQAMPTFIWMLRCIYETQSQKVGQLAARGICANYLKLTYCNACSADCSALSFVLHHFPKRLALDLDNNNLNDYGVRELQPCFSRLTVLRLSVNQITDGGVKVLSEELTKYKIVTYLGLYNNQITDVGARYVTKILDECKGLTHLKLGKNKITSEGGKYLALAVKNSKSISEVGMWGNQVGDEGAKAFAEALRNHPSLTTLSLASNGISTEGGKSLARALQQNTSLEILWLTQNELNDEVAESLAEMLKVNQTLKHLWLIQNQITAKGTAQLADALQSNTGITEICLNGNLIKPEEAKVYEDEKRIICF
# [12] = target: T3, Nucleotide-binding oligomerization domain-containing protein 1; experiment: NOD1 signaling inhibitors, SAR follow-up, revised (AID 2333); type: functional
# [13] = target: T4, Interleukin-8 (Homo sapiens, UniProt P10145); experiment: SAR analysis of Tumor necrosis factor alpha (TNF-alpha) induced IL-8 secretion in MCF-7/NOD1 cells - Set 2. [Related pubchem assays (depositor defined):AID1575, AID2250, AID2260]; type: functional, cell-based
# T4 sequence (P10145 whole entry): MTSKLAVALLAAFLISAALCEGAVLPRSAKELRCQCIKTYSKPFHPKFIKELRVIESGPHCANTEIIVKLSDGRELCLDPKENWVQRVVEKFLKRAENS
# [14] = target: Nucleotide-binding oligomerization domain-containing protein 2 (Homo sapiens, UniProt Q9HC29); experiment: PubChem AID 2334; type: functional
# [15] = target: T4, Interleukin-8; experiment: SAR analysis of GM-Tri-DAP induced IL-8 secretion in MCF-7/NOD1 cells - Set 2. [Related pubchem assays (depositor defined):AID1575, AID1578, AID2333]; type: functional, cell-based
# [16] = tested on: HEK293; experiment: cells; settings: Homo sapiens;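 further: cells exposed to compound for 14 hours overnight before viability readout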
# [17] = target: T5, Estrogen receptor (Homo sapiens, UniProt P03372);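 further: potency for inhibiting coactivator peptide recruitment to the receptor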
# T5 sequence (P03372 whole entry): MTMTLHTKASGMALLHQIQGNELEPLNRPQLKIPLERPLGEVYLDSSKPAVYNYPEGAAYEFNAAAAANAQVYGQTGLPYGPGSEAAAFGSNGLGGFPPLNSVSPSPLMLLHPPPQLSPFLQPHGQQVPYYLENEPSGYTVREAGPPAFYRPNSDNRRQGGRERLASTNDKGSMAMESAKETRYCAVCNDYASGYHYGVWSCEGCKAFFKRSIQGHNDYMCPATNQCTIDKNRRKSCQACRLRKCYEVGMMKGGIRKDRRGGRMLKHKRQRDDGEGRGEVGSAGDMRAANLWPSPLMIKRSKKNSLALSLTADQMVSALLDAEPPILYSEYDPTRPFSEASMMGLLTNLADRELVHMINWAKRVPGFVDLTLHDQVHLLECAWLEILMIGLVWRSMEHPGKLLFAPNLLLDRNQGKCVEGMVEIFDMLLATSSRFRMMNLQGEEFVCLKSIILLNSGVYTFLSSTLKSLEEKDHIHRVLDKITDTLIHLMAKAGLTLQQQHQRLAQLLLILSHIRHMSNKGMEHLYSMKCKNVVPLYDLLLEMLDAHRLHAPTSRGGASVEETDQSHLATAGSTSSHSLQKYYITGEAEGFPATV
# [18] = cytotoxicity in HEK-293T cells, dose response, cytotoxicity control for TCR NF-kB inhibitor project, luminescence, T-cell screen hits (AID 489026); type: functional, cell-based;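 further: cells exposed to compound about 14 hours before the viability readout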
# [19] = target: T6, Estrogen receptor beta (Homo sapiens, UniProt Q92731); experiment: ERβ–SRC-3 coactivator interaction inhibitors, confirmation, orthogonal assay, biochemical, ELISA, streptavidin-HRP readout (AID 1060)
# [20] = target: Scavenger receptor class B member 1 (Mus musculus, UniProt Q61009); experiment: inhibitors of SR-BI mediated HDL lipid uptake, dose response, ldlA[mSR-BI] cells, fluorescence, cherry pick (AID 493194); type: functional, cell-based;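 further: cellular uptake of fluorescent DiI-labeled HDL measured as cell fluorescence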
# [21] = target: T6, Estrogen receptor beta
# [22] = target: Polyadenylate-binding protein 1 (Homo sapiens, UniProt P11940); experiment: PABP poly(A) RNA binding inhibitors, primary screen, biochemical, fluorescence polarization, uHTS (AID 2014)
# [23] = target: Eukaryotic translation initiation factor 4H (Homo sapiens, UniProt Q15056); experiment: human eIF4H binding inhibitors, primary screen, translation initiation inhibitor project, biochemical, uHTS, fluorescence polarization (AID 2012)
# [24] = target: Cyclin-dependent kinase 5/CDK5 activator 1 (Homo sapiens, UniProt Q00535); experiment: CDK5/p35 kinase inhibitors, dose response, biochemical, cherry-picked samples, set 2 (AID 504545)
# [25] = target: Cytochrome P450 2C9 (Homo sapiens, UniProt P11712); settings: Potency
# [26] = target: Keap1/Nrf2 (Homo sapiens, UniProt Q14145); experiment: Keap1-Nrf2 protein-protein interaction inhibitors, dose response, biochemical, fluorescence polarization, cherry-picked samples (AID 588683)
# [27] = target: Cystic fibrosis transmembrane conductance regulator/Golgi-associated PDZ and coiled-coil motif-containing protein (Homo sapiens, UniProt P13569+Q9HD26); experiment: CAL PDZ peptide-binding inhibitors, dose response, biochemical, fluorescence polarization, Cerulean-tagged CAL PDZ, cherry-picks (AID 504773)
# [28] = target: Nonstructural protein 1 (Influenza A virus, UniProt Q194T2); type: functional, Influenza A virus (A/California/07/2009(H1N1))
# [29] = target: Signal transducer and activator of transcription 3 (Homo sapiens, UniProt P40763); experiment: STAT3 activators, late-stage profile, late-stage follow-up, cell-based, STAT1 reporter, BCL3 qPCR, cytotoxicity, panel member STAT3 Activation (AID 2049)
# [30] = target: T7, Kappa-type opioid receptor (Homo sapiens, UniProt P41145); experiment: SAR analysis of small molecule antagonists of the kappa opioid receptor via a luminescent beta-arrestin assay - Set 4. [Related pubchem assays (depositor defined):AID1777, AID1778, AID1785, AID1786, AID1966, AID2133, AID2136, AID2285]; type: functional
# [31] = target: Delta-type opioid receptor (Homo sapiens, UniProt P41143); experiment: SAR Analysis of Antagonists of the DOR Receptor using an Image-Based Assay - Set 3. [Related pubchem assays (depositor defined):AID1777, AID1785]; type: functional;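 further: U2OS cells expressing DOR1 and beta-arrestin GFP stimulated with 100 nM SNC80; imaging of GFP-tagged beta-arrestin moving into spots after receptor activation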
# [32] = target: T7, Kappa-type opioid receptor; experiment: SAR analysis of small molecule antagonists of the kappa opioid receptor via a luminescent beta-arrestin assay - Set 6. [Related pubchem assays (depositor defined):AID1777, AID1778, AID1785, AID1786, AID1966, AID2133, AID2136, AID2285]; type: functional
# [33] = target: T7, Kappa-type opioid receptor; experiment: SAR analysis of Antagonists of the Kappa Opioid Receptor (KOR) using an Image-Based Assay - Set 4. [Related pubchem assays (depositor defined):AID1777, AID1785]; type: functional
# [34] = target: Mu-type opioid receptor (Homo sapiens, UniProt P35372); experiment: SAR Analysis of Antagonists of the MOR Receptor using an Image-Based Assay - Set 3. [Related pubchem assays (depositor defined):AID1777, AID1785, AID1786, AID1966, AID2133, AID2136, AID2284, AID2285, AID2420]; type: functional
# T7 sequence (P41145 whole entry): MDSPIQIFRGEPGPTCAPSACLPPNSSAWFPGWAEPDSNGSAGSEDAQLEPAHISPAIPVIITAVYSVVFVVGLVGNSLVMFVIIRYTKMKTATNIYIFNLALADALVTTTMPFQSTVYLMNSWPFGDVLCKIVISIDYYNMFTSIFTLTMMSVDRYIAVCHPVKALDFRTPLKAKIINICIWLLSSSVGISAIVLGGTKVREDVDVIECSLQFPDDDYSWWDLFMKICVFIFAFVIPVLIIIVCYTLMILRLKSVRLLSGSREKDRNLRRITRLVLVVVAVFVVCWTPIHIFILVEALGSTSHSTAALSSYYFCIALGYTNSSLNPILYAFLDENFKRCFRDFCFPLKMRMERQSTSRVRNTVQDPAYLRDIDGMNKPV
# Chain of ORF 73 (O40947 whole entry): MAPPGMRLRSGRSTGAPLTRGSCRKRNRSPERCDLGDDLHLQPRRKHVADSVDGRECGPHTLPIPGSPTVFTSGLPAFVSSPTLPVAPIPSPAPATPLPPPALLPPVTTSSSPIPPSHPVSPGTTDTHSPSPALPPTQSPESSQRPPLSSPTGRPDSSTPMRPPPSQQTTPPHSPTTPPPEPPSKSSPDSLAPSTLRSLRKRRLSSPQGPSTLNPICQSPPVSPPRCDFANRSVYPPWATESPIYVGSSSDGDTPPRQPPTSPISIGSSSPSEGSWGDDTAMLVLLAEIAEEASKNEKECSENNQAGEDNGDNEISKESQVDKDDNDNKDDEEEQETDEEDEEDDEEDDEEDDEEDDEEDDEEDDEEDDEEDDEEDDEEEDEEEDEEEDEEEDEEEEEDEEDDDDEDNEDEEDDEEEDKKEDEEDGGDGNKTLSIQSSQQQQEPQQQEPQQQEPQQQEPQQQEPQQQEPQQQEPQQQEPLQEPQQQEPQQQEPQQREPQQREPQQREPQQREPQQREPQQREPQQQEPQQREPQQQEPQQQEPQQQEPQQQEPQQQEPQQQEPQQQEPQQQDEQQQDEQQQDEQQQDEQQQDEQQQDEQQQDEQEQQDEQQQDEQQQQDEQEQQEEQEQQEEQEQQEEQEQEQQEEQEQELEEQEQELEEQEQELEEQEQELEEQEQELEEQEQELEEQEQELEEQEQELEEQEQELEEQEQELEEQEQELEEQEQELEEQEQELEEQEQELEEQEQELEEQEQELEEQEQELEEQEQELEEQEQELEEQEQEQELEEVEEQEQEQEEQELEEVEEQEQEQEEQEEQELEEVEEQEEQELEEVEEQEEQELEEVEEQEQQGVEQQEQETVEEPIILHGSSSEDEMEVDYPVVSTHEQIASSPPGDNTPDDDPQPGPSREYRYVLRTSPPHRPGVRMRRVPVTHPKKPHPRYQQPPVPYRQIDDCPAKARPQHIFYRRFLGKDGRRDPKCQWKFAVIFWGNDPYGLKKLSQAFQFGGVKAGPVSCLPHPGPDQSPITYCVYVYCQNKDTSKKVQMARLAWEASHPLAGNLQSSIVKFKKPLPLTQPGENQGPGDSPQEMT
# T2 sequence (O95180 whole entry): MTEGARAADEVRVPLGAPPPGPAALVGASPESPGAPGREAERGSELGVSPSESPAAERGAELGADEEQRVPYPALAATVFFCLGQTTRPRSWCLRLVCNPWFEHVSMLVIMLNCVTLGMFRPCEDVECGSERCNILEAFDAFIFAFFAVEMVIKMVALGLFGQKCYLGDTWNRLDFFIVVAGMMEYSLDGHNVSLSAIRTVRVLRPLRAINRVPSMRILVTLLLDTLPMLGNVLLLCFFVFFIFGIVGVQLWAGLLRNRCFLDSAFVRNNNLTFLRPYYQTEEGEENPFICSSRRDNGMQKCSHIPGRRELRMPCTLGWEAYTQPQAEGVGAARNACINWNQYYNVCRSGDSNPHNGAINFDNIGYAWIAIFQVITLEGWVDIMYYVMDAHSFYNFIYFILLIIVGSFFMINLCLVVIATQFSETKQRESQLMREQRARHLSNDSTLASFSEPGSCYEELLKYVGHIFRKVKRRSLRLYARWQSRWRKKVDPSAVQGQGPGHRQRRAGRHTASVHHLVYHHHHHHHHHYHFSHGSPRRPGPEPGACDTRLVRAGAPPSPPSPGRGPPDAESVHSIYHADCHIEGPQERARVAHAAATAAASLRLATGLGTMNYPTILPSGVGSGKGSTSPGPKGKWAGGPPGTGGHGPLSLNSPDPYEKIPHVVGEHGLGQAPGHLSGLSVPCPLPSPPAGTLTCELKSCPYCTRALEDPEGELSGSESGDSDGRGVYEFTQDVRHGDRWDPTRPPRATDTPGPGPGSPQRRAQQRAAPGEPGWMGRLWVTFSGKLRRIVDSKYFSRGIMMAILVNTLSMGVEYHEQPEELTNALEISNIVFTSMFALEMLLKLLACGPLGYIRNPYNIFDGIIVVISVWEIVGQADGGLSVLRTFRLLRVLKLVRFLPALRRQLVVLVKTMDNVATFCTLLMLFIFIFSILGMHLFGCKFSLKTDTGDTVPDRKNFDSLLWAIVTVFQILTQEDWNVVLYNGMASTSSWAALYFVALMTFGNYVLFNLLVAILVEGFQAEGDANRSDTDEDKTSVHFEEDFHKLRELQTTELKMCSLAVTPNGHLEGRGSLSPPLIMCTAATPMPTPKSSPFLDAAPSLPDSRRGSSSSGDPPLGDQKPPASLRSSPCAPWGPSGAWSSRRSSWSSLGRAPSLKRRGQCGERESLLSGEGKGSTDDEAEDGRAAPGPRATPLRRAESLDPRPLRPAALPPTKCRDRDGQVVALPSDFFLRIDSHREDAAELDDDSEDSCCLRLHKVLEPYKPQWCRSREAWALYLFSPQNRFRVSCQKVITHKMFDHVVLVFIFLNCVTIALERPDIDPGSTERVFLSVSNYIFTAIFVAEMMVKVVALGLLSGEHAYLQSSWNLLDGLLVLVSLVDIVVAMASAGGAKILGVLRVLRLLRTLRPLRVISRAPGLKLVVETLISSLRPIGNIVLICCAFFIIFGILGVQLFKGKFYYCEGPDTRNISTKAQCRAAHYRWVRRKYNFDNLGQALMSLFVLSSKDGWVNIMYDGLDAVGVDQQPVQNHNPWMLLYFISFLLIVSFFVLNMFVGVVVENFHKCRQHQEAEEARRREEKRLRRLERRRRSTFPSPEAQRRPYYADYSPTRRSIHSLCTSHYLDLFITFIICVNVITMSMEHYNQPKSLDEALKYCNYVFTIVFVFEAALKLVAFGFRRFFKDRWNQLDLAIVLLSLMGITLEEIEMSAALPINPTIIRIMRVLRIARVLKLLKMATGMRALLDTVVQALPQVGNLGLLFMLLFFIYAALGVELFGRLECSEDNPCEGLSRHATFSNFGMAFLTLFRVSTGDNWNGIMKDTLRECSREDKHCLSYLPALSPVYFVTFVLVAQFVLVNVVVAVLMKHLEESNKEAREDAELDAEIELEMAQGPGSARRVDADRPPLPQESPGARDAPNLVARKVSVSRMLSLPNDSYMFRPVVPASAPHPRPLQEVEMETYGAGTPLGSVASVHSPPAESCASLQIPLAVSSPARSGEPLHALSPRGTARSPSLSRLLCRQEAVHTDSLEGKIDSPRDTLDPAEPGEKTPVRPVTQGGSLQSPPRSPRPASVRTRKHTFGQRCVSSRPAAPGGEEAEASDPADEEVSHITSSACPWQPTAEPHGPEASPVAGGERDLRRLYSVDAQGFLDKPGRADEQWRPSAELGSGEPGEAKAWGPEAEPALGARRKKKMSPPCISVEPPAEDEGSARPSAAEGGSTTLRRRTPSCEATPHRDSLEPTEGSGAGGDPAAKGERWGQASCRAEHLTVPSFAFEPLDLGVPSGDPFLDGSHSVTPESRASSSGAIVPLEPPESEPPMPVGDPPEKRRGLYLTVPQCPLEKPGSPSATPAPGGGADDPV
# Chain of UDP-galactopyranose mutase (P9WIQ1 whole entry): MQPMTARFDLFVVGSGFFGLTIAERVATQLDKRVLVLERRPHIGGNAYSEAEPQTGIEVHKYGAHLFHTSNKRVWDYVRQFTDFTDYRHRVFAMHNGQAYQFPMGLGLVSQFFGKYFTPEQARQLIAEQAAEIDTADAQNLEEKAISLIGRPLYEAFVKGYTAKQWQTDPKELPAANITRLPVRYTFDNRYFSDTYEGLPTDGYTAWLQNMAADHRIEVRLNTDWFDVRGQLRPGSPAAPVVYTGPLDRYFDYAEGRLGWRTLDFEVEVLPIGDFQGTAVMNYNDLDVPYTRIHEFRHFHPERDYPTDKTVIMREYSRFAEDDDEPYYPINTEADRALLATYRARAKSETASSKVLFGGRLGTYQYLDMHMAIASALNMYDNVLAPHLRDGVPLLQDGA
# T6 sequence (Q92731 whole entry): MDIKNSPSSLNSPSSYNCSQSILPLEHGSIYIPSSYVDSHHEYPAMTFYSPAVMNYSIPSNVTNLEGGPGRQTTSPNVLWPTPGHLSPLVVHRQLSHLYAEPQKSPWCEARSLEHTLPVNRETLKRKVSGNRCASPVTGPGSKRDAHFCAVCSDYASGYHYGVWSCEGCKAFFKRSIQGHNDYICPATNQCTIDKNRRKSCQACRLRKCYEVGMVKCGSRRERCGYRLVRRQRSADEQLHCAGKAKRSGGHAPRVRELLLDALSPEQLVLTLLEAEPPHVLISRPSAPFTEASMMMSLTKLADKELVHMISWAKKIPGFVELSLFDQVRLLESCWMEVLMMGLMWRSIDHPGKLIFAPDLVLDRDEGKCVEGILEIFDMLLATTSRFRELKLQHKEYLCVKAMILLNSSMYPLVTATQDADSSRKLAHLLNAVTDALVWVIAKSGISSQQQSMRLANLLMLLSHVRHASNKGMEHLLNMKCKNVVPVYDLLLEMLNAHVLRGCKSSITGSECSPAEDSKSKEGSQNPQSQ
# Chain of Tumor necrosis factor (P01375 whole entry, the tested form may be a part): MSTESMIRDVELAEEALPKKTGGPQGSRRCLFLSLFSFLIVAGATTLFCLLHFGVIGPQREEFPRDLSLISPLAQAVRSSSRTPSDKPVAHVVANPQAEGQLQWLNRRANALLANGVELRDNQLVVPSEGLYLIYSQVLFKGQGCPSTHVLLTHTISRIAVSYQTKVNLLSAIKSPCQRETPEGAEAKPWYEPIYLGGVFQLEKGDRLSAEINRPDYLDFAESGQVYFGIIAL
structure (smiles),measurement,setting,value
CCOC(=O)c1c(C)oc2cc(Br)c(O)c(Br)c12,IC50,[1],0.779 µM (active)
O=C(NCc1cc([N+](=O)[O-])ccc1O)c1cccnc1Sc1ccccc1,CC50,[2],> 100 µM (active)
Nc1c(C(=O)Nc2ccccc2F)sc2nc(Cc3ccccc3)cc(C(F)(F)F)c12,AC50,[3],98.6 µM (active)
same,EC50,[4],17.4 µM (active)
same,EC50,[5],> 99 µM (inactive)
same,EC50,[6],1.9 µM (active)
same,EC50,[7],2.71 µM (active)
same,AC50,[8],95.9 µM (active)
same,AC50,[9],16.1 µM (active)
Nc1nc2ccccc2n1CCOc1ccc(Cl)cc1,IC50,[10],> 20 µM (inactive)
same,IC50,[11],> 25 µM (inactive)
same,IC50,[12],12.7 µM (active)
same,IC50,[13],> 25 µM (inactive)
same,IC50,[14],> 20 µM (inactive)
same,IC50,[15],8.6 µM (active)
same,IC50,[16],> 20 µM (inactive)
Cc1c(C(=O)OCc2ccccc2)[nH]c2c1C(=O)CC(c1ccco1)C2 (configuration not stated),IC50,[17],23 µM (active)
same,IC50,[18],> 80 µM (inactive)
same,IC50,[19],9.51 µM (not active)
same,AC50,[20],0.258 µM (active)
same,IC50,[21],15.1 µM (active)
CCOc1ccc2nc(SCC(=O)NC(=O)NCc3ccco3)[nH]c2c1,IC50,[22],62.3 µM (active)
same,IC50,[23],13.3 µM (active)
COc1ccc2nc3c(cc2c1)c(NC(=O)C1CCCO1)nn3CC(C)C (configuration not stated),AC50,[24],31.2 µM (active)
CCCCCC[C@H]1C(=O)O[C@@H](C)[C@H](NC(=O)c2cccc(NC=O)c2O)C(=O)O[C@@H](C)[C@@H]1OC(=O)CC(C)C,AC50,[25],31.6 µM (inconclusive)
CCNc1ccc2noc3c2c1C(=O)c1ccccc1-3,AC50,[26],0.866 µM (active)
same,AC50,[27],4.08 µM (active)
same,AC50,[3],0.609 µM (active)
same,IC50,[28],62 µM (active)
same,AC50,[8],42.9 µM (active)
same,AC50,[9],1.03 µM (active)
COc1cc(NC(=O)c2cc(C)on2)c(OC)cc1Cl,EC50,[29],6.98 µM (active)
CC(C)N(CCNC(=O)c1ccc(CNS(=O)(=O)c2ccc(-c3ccccc3)cc2)cc1)Cc1ccccc1,IC50,[30],1.33 µM (active)
same,IC50,[31],> 32 µM (inactive)
same,IC50,[32],> 20 µM (inactive)
same,IC50,[33],0.432 µM (active)
same,IC50,[34],> 32 µM (inactive)
